Measured values taken from patent US20090269418A1, “Compositions and Methods for Inducing Hair Growth” (BioMas Ltd, priority 2004, published 2009).
Entries after “also recorded” stand apart in the source; their conditions may differ. Where two headings read alike, the source gives them in different places.

Key:
[1] = test system: hair shedding / hair growth of the scalp in patients; test: Small-scale human clinical study of 0.01% AS101 topical spray, TrichoScan hair density analysis; type: in vivo
Description: Two small-scale human clinical studies were each conducted over a 6 month period to evaluate the potential use of an 0.01% AS101 spray formulation for the prevention of hair shedding and/or enhancing hair growth. Patients received no other alopecia treatment for at least 3 months prior to commencement of the study.
The sample group consisted of 36 patients, of which 6 withdrew due to non-compliance. Data from a further 14 patients was considered to be unsuitable for analysis with the TrichoScan system, for example, due to untraceable tattoos. 16 patients were therefore available for evaluation.
During an initial visit, a designated area of the scalp (about 0.7 cm^2) was shaved. Three days later, the area was tattooed using red ink, and photographed (Nikon digital camera). Patients were provided with a topical spray composition comprising 0.01% AS101 in 20% propylene glycol, 20% water and 60% ethyl alcohol, and were instructed to apply about 2 ml of the composition on the designated area on a daily basis for the first week, and once a day, twice a week thereafter. Patients were examined upon enrollment, and then after about 2 months, after about 3 months, and after about 6 months. Hair density, terminal hair density, and vellus hair density were analyzed, using the DatInf^R Image DB image archiving system, and TichoScan software.
Results were calculated in terms of hair density, terminal hair density, and vellus hair density.
FIGS. 2a and 2b present the data obtained for the hair density, terminal hair density and vellus hair density, each per cm^2, with two representative individuals of the study. The above parameters were measured at commencement of the study, after about 1 month, after about 3 months, and after about 6 months. All results were obtained using the DatInf^R Image DB image archiving system, and TichoScan software.

interferon (IFN) [2] = settings: humans; cited from earlier work
interferon (IFN) [3] = settings: mice; cited from earlier work
IL-1, IL-6, TNF-α, IL-10 = settings: cited from earlier work
hair growth [4] = settings: humans; cited from earlier work
KGF expression = settings: cultured fibroblasts; via Cys118 of p21ras, ras signalling pathway; cited from earlier work
anagen / catagen = settings: C57BL/6 mouse model; cited from earlier work
[5] = test system: bone marrow toxicity and alopecia induced by chemotherapy; settings: cancer patients; cited from earlier work
hair growth [6] = settings: nude mice, normal mice; in nude mice systemic, oral or topical; cited from earlier work

Cl[TeH]1(Cl)(Cl)OCCO1 [AS101, ammonium trichloro(dioxyethylene-O,O′)tellurate]
side-effects ([1]; 0.01% AS101 topical spray, 6 months): No side-effects were observed
patients responding partially (increase observed during part of the treatment period) ([1]; 0.01% AS101 topical spray, 6 months, 16 evaluable patients): 18.75%
patients who completed the study responding with a consistent increase in hair density ([1]; 0.01% AS101 topical spray, about 2 ml, daily first week then twice a week, 6 months, 16 evaluable patients): 37.5%
hair density, terminal hair density and vellus hair density per cm^2 ([1]; after about 1 month, representative person and person (FIGS. 2a, 2b)): significant increase
interferon (IFN) induction (interferon (IFN) [2]): potent activator; also recorded: potent inducer
interferon (IFN) induction (interferon (IFN) [3]): potent activator; also recorded: potent inducer
IL-10 inhibition (IL-1, IL-6, TNF-α, IL-10; m-RNA level): inhibit IL-10 at the m-RNA level
secretion of cytokines such as IL-1, IL-6 and TNF-α (IL-1, IL-6, TNF-α, IL-10; macrophages are one main target): induce the secretion
induction of hair growth (hair growth [4]): induce hair growth
KGF expression (KGF expression): upregulates KGF expression
anagen induction and retardation of spontaneous catagen (anagen / catagen): induce anagen and retard spontaneous catagen
protection from bone marrow toxicity and alopecia induced by chemotherapy [5]: ability to protect
induction of hair growth (hair growth [6]): induce hair growth
